Results reported in US20240082334A1, “STABILIZED STEVIOL GLYCOSIDE COMPOSITIONS AND USES THEREOF” (CARGILL, INCORPORATED, priority 2017, published 2024).

Assay: Reb M solubility in D2O observed in NMR sample preparation
Type: physicochemical
Conditions: when SCs are not present, compared with SCs present; room temperature
Method: A total of four samples were prepared for this study, and they are listed below. Each sample was dissolved fully in water, with or without heat as noted below, flash frozen at −80° C., and then placed on a lyophilizer until dry. The dry powders were subsequently dissolved in D2O at room temperature and analyzed by ^1H NMR and ^13C NMR.

solubility in D2O: much lower
SMILES: C=C1C[C@@]23CC[C@H]4[C@@](C)(CCC[C@@]4(C)C(=O)O[C@@H]4O[C@H](CO)[C@@H](O)[C@H](O[C@@H]5O[C@H](CO)[C@@H](O)[C@H](O)[C@H]5O)[C@H]4O[C@@H]4O[C@H](CO)[C@@H](O)[C@H](O)[C@H]4O)[C@@H]2CC[C@]1(O[C@@H]1O[C@H](CO)[C@@H](O)[C@H](O[C@@H]2O[C@H](CO)[C@@H](O)[C@H](O)[C@H]2O)[C@H]1O[C@@H]1O[C@H](CO)[C@@H](O)[C@H](O)[C@H]1O)C3 [Reb M, Rebaudioside M]
